In ChEMBL document CHEMBL5034023, “Development of Multifunctional and Orally Active Cyclic Peptide Agonists of Opioid/Neuropeptide FF Receptors that Produce Potent, Long-Lasting, and Peripherally Restricted Antinociception with Diminished Side Effects” (J Med Chem, 2021):
Activity calls are given as the source filed them. No cut-off for these calls is given here. Bridge positions count the residues as written; N and C are the ends. Square brackets hold non-standard residues; d marks the D form. Peptide text beside a SMILES is read from it. NMeF = CN[C@@H](Cc1ccccc1)C(=O)O

Legend:
[1] = tested on: Mus musculus; assay: Antinociceptive activity in Kunming mouse assessed as analgesic tolerance administered subcutaneously once daily for 8 days by tail flick test; type: functional, organism-based; conditions: time 8.0 day
[2] = tested on: Mus musculus; assay: Antinociceptive activity against Kunming mouse model of thermal-induced nociception assessed as prolongation of tail-flick latency period at 2 pmol, icv in presence of Nal measured up to 240 mins by tail-flick test; type: functional, organism-based; conditions: time min <=240
[3] = tested on: Mus musculus; assay: Antinociceptive activity against Kunming mouse model of thermal-induced nociception assessed as maximum possible effect at 8.68 nmol/kg, po measured after 20 min by tail flick test relative to control; type: functional

CN1C(=O)CNC(=O)[C@H](NC(=O)[C@@H](N)Cc2ccc(O)cc2)CCCCNC(=O)C[C@@H](C(=O)N2CCC[C@H]2C(=O)N[C@@H](CCC(N)=O)C(=O)N[C@@H](CCCNC(=N)N)C(=O)N[C@@H](Cc2ccccc2)C(N)=O)NC(=O)[C@@H]1Cc1ccccc1 (H-Y[dK]G[NMeF]DPQRF-NH2; lactam 2-5)
Activity [1]: inactive | Activity [2]: inactive | MPE [3]: 89.7%
